The values that follow come from patent publication US11866458B2, “Panaxadiol glycoside derivative and preparation method and application thereof” (SUZHOU JI ER BIOLOGICAL MEDICINE CO., LTD., priority 2018, dated 2024).

Test [1] concerns COPD rats induced by smoke exposure. Kind of test: COPD induced by smoke exposure in rats: lung function FEV0.2/FVC. The settings on record: for FEV2/FVC % (FEV0.2/FVC %, forced expiratory index within 200 ms): 180 days; for effect in COPD rats compared with inhaled budesonide: high dose group, oral. It counts as in vivo, Wistar rats.
The subject of test [2] is inflammatory cells in bronchoalveolar lavage fluid of mice. Put plainly: Determination of inflammatory cells in bronchoalveolar lavage fluid of mice (OVA asthma model). It counts as in vivo, BALB/C mice. Also on record: unit not given here. Conditions: oral. The protocol:
144 6-week-old BALB/C mice (18-20 g) were divided into 24 groups: control group, placebo group, dexamethasone group (3 mg/kg) and the drug groups. There were 6 in each group. The control group was given normal saline without any treatment. The other groups were sensitized by intraperitoneal injection of OVA 20 μg and aluminum hydroxide 200 μL PBC (2 mg, prepared into emulsion). […] On day 21, 22 and 23, the therapeutic agent (i.e. 3 mg/kg dexamethasone in the positive control group and oral administration in the drug group) was given orally. From day 17 to 23, PBS was given to the control group and placebo group respectively, PBS (without OVA) was given to the control group. On day 0 and day 14, the normal saline was nebulized for 30 minutes to remove the aluminum hydroxide on day 21, 22 and 23 See in Table 2.

Test [3] deals with mouse asthma model induced by OVA. Kind of test: Asthma induced by ovalbumin in Balb/c mice: IgE level in serum by ELISA. Format: in vivo. The settings on record: oral; for content of IgE in mice serum (conclusion in words): model of mouse asthma induced by OVA, samples; for therapeutic effect on bronchial asthma induced by OVA: mouse. (An ELISA detects its analyte on a solid surface through an enzyme-linked reagent.)

The mark [4] stands for this setting: Table 1-1 (1st time), 20 mg/kg, 24 hours after last OVA stimulation.

Take `CCCC1O[C@@H]2C[C@H]3[C@@H]4CCC5=CC(=O)C=C[C@]5(C)[C@H]4[C@@H](O)C[C@]3(C)[C@]2(C(=O)CO)O1` (some centres unmarked) [Budesonide, reference compound]: in test [1] (nebulized 0.25 mg/mL, 4 mL, 30 minutes), the “FEV2/FVC % (FEV0.2/FVC %, forced expiratory index within 200 ms)” value is recorded as 79.47 ± 12.39 %.
Turning to `CC(=O)O[C@H]1CC[C@@]2(C)C(CC[C@]3(C)C2CC(=O)C2C([C@](C)(CCC=C(C)C)O[C@@H]4OC(CO)[C@@H](O)[C@H](O)C4O)CC[C@]23C)C1(C)C` (stereo partly drawn) [IA, 3-O-acetyl-20(S)—O-β-D-glucopyranosyl Dammarane-24-ene-12-one], in test [2] (2 mg/kg), the “Acidic cells in bronchoalveolar lavage fluid” value (“Acidic cells” for short) is recorded as 29.23 ± 10.29, the “Neutral cells in bronchoalveolar lavage fluid” value (shortened to “Neutral cells”) turned out to be 10.40 ± 6.48, the “Total inflammatory cells in bronchoalveolar lavage fluid” value (“Total inflammatory cells” below) was 40.75 ± 26.14 and the “lymphocyte in bronchoalveolar lavage fluid” value (“lymphocyte” for short) is on record as 11.81 ± 5.97. In addition, in test [2] (20 mg/kg), the “Acidic cells” value is recorded as 11.46 ± 4.12, the “Neutral cells” value worked out at 6.38 ± 3.45, the “Total inflammatory cells” value is given as 26.93 ± 15.01 and the “lymphocyte” value is reported as 8.84 ± 5.63. Moreover, in test [2] (200 mg/kg), the “Neutral cells” value stood at 2.08 ± 2.01, the “Total inflammatory cells” value is 10.85 ± 4.62 and the “lymphocyte” value came to 4.27 ± 3.16.
In the case of `COC(=O)C1O[C@@H](O[C@@](C)(CCC=C(C)C)C2CC[C@]3(C)C2C(=O)CC2[C@@]4(C)CC[C@H](OC(C)=O)C(C)(C)C4CC[C@]23C)C(O)[C@@H](O)[C@@H]1O` (stereo partly drawn) [IA-1, 3-β-O-acetyl-20(S)—O-β-D-glucopyranuronic acid methyl ester dammarane-24-ene-12-one], in test [2] (2 mg/kg), the “Acidic cells” value is recorded as 26.55 ± 13.23, the “Neutral cells” value is given as 10.21 ± 6.07, the “Total inflammatory cells” value was found to be 43.42 ± 26.14 and the “lymphocyte” value was determined as 13.22 ± 8.27. For the same molecule, in test [2] (20 mg/kg), the “Acidic cells” value was 13.26 ± 3.92, the “Neutral cells” value was 3.95 ± 2.41, the “Total inflammatory cells” value worked out at 28.11 ± 14.91 and the “lymphocyte” value is listed as 4.76 ± 3.18. Further, in test [2] (200 mg/kg), the “Acidic cells” value is 5.22 ± 3.31, the “Neutral cells” value came out at 3.75 ± 2.46, the “Total inflammatory cells” value is listed as 11.48 ± 4.39 and the “lymphocyte” value is recorded as 3.82 ± 2.66.
`CC(C)=CCC[C@](C)(O[C@@H]1OC(CO)[C@@H](O)[C@H](O)C1O)C1CC[C@]2(C)C1C(=O)CC1[C@@]3(C)CC=CC(C)(C)C3CC[C@]12C` (stereo partly drawn) [IH, 20(S)—O-β-D-glucopyranosyl dammarane-3, 24-diene-12-one]: the “Concentration of IgE in serum” value in test [3] (setting [4]) is listed as 1191.08 ± 107.59 ng/mL; in test [3] (Table 1-2 (2nd time), 15 mg/kg), 1682.40 ± 182.76 ng/mL; in test [3] (Table 1-2 (2nd time), 30 mg/kg), 1311.37 ± 165.93 ng/mL; in test [3] (Table 1-2 (2nd time), 60 mg/kg), 1150.59 ± 129.55 ng/mL. In addition, the “content of IgE in mice serum (conclusion in words)” value (“content of IgE in mice serum” below) in test [3] is reported as “significantly reduce”. The “therapeutic effect on bronchial asthma induced by OVA” value (“therapeutic effect” below) in test [3] is on record as “obvious therapeutic effect”. For the same molecule, the results for the “FEV2/FVC % (FEV0.2/FVC %, forced expiratory index within 200 ms)” value in test [1] (20 mg/kg oral), in test [1] (40 mg/kg oral) and in test [1] (80 mg/kg oral) were 63.27 ± 14.65%, 73.59 ± 12.14 % and 85.51 ± 15.27 %, respectively. Moreover, the “effect in COPD rats compared with inhaled budesonide” value in test [1] is listed as “superior to budesonide”.
Consider `CC(C)=CCC[C@](C)(O[C@@H]1OC[C@@H](O)[C@H](O)C1O)C1CC[C@]2(C)C1[C@H](O)CC1[C@@]3(C)CC[C@H](O)C(C)(C)C3CC[C@]12C` (stereo partly drawn) [IJ, 20-O-β-D-xylopyranosyl-20(S)-panaxadiol glycoside], for which the “Concentration of IgE in serum” value is 1250.07 ± 144.38 ng/mL in test [3] (setting [4]); 2068.41 ± 153.29 ng/mL in test [3] (Table 1-2 (2nd time), 15 mg/kg); 1824.85 ± 155.74 ng/mL in test [3] (Table 1-2 (2nd time), 30 mg/kg); 1622.18 ± 130.38 ng/mL in test [3] (Table 1-2 (2nd time), 60 mg/kg). In addition, the “FEV2/FVC % (FEV0.2/FVC %, forced expiratory index within 200 ms)” value in test [1] (20 mg/kg oral) is 65.78 ± 12.35%; in test [1] (40 mg/kg oral) it was 77.57 ± 9.69 %; in test [1] (80 mg/kg oral), 84.36 ± 7.10 %. The “effect in COPD rats compared with inhaled budesonide” value in test [1] was “superior to budesonide”.
In the case of `CC(C)=CCC[C@](C)(O[C@@H]1OC(C)[C@H](O)[C@H](O)C1O)C1CC[C@]2(C)C1[C@H](O)CC1[C@@]3(C)CC[C@H](O)C(C)(C)C3CC[C@]12C` (some centres unmarked) [IK], the “Concentration of IgE in serum” value in test [3] (setting [4]) is given as 1020.78 ± 136.94 ng/mL; in test [3] (Table 1-2 (2nd time), 15 mg/kg), 1720.54 ± 165.49 ng/mL; in test [3] (Table 1-2 (2nd time), 30 mg/kg), 1406.28 ± 171.05 ng/mL; in test [3] (Table 1-2 (2nd time), 60 mg/kg) it was 1217.43 ± 162.75 ng/mL. The “content of IgE in mice serum” value in test [3] is listed as “significantly reduce”. Moreover, the “therapeutic effect” value in test [3] is recorded as “obvious therapeutic effect”. The “FEV2/FVC % (FEV0.2/FVC %, forced expiratory index within 200 ms)” value in test [1] (20 mg/kg oral) is listed as 67.67 ± 11.39%; in test [1] (40 mg/kg oral), 78.59 ± 6.12 %; in test [1] (80 mg/kg oral) it was 85.56 ± 10.07 %. The “effect in COPD rats compared with inhaled budesonide” value in test [1] is listed as “superior to budesonide”.
Regarding `CC(C)=CCC[C@](C)(O[C@@H]1OC[C@H](O)[C@H](O)C1O)C1CC[C@]2(C)C1[C@H](O)CC1[C@@]3(C)CC[C@H](O)C(C)(C)C3CC[C@]12C` (stereo partly drawn) [IL, 20-O-α-L-arabinopyrauosyl-20(S)-panaxadiol glycoside], the “Concentration of IgE in serum” value in test [3] (setting [4]) stood at 996.36 ± 102.45 ng/mL; in test [3] (Table 1-2 (2nd time), 15 mg/kg) it was 1548.67 ± 190.16 ng/mL; in test [3] (Table 1-2 (2nd time), 30 mg/kg), 1311.37 ± 154.37 ng/mL; in test [3] (Table 1-2 (2nd time), 60 mg/kg), 1080.12 ± 131.23 ng/mL. Also, the “content of IgE in mice serum” value in test [3] is given as “significantly reduce”. For the same molecule, the “therapeutic effect” value in test [3] is reported as “obvious therapeutic effect”. Also, the “FEV2/FVC % (FEV0.2/FVC %, forced expiratory index within 200 ms)” value in test [1] (20 mg/kg oral) stood at 71.15 ± 10.34 %; in test [1] (40 mg/kg oral), 80.25 ± 8.79 %; in test [1] (80 mg/kg oral), 89.62 ± 5.14 %. The “effect in COPD rats compared with inhaled budesonide” value in test [1] is “superior to budesonide”.
